The source of these data is patent US6753154B1, “Human AZU-1 gene, variants thereof and expressed gene products” (The Regents of the University of California, priority 1998, dated 2004).

The experiment concerns T4-2 cells. Put plainly: Reversion assay in 3D rBM cultures with Northern blot of AZU-1 message. The class given is cell-based, human. The conditions noted are these: 3D rBM culture; AIIB2 100 μg/ml ascites protein, Tyrphostin AG 1478 100 nM. The source says:
To test this, total RNA was extracted from 3D rBM cultures of S1 cells and T4-2 cells treated with or without inhibitors of either β1 integrin (mAb AIIB2) or EGFR (Tyrphostin). Results are seen in FIG. 18. […] By virtue of its connections with β1 integrin and EGFR, AZU-1 may provide essential cellular information that dictates cellular structure and phenotype.
Total RNA was extracted from cells cultured as monolayers or in 3D rBM or cells from normal tissues or in situ carcinoma with TRIzol reagent (Life Technologies, Inc. Grand Island, N.Y.). For Northern blots, total RNA (20 μg/lane) was resolved on denaturing agarose gels and transferred to Hybond-N^+ membranes (Amersham). Resulting blots were hybridized with ^32P-labeled cDNA probes and analyzed by autoradiography. A GAPDH probe was used to normalize variations in loading.
The β1-integrin function-blocking mAb AIIB2 (C. Damsky, UCSF) was introduced into the cell-embedded substratum at a concentration of 100 μg/ml ascites protein (which corresponds to 4-10 μg/ml purified rat IgG1) at the time of Matrigel gelation. Tyrphostin AG 1478 (Calbiochem) dissolved in dimethyl sulfoxide was added to the medium at a concentration of 100 nM on alternate days. Control cultures were treated with […] and vehicle only for AIIB2 antibody and inhibitor experiments, respectively.

As to `COc1cc2ncnc(Nc3cccc(Cl)c3)c2cc1OC` [Tyrphostin, Tyrphostin AG 1478], the “AZU-1 message levels in treated T4-2 cells (Northern blot)” value was “restored to S1-like levels” and the “phenotype of treated T4-2 cells in 3D rBM” value is recorded as “phenotypically reverted”.
